Here are results for one molecule from patent US7851466B2, “Pyrimidine compounds and uses thereof” (Synta Pharmaceuticals Corp., priority 2004, dated 2010).

In experiment [1] the test system is colitis in T cell-reconstituted C.B-17 SCID mice. The experiment is described as follows: CD4+ CD45Rb high T cell-reconstituted SCID colitis model mice. Type of experiment: in vivo, mouse. How it is done: Treatment of Crohn's disease in CD4^+ CD45Rb^high T cell-reconstituted SCID colitis model mice: Spleen cells were prepared from normal female BALB/c mice. For cell purification, the following anti-mouse antibodies were used to label non-CD4^+ T cells: B220 (RA3-6B2), CD11b (M1/70), and CD8α (53-6.72). All antibodies were obtained from BioSource (Camarillo, Calif.). M450 anti-rat IgG-coated magnetic beads (Dynal, Oslo, Norway) were used to bind the antibodies and negative selection was accomplished using an MPC-1 magnetic concentrator. The enriched CD4^+ cells were then labeled for cell sorting with FITC-conjugated CD45RB (16A, Pharmingen, San Diego, Calif.) and PE-conjugated CD4 (CT-CD4, Caltag, Burlingame, Calif.). CD4^+ CD45RB^high cells were operationally defined as the upper 40% of CD45Rb-staining CD4^+ cells and sorted under sterile conditions by flow cytometry. Harvested cells were resuspended at 4×10^6/mL in PBS and injected 100 μL intraperitoneally into female C.B-17 SCID mice. Pyrimidine compounds of this invention (e.g., Compound 12) and/or vehicle was orally administered once a day, 5 days per week, starting the day following the transfer. The transplanted SCID mice were weighed weekly and their clinical condition was monitored.
Colon tissue samples were fixed in 10% buffered formalin and embedded in paraffin. Sections (4 μm) collected from ascending, transverse, and descending colon were cut and stained with hematoxylin and eosin. The severity of colitis was determined based on histological examination of the distal colon sections, whereby the extent of colonic inflammation was graded on a scale of 0-3 in each of four criteria: crypt elongation, cell infiltration, depletion of goblet cells, and the number of crypt abscesses.
LP lymphocytes were isolated from freshly obtained colonic specimens. After removal of payer's patches, the colon was washed in Ca/Mg-free HBSS, cut into 0.5 cm pieces and incubated twice in HBSS containing EDTA (0.75 mM), DTT (1 mM), and antibiotics (amphotericin 2.5 μg/mL, gentamicin 50 μg/mL from Sigma) at 37° C. for 15 min. Next, the tissue was digested further in RPMI containing 0.5 mg/mL collagenase D, 0.01 mg/mL DNase I (Boehringer Manheim), and antibiotics at 37° C. […]
To measure cytokine production, 48-well plates were coated with 10 μg/mL murine anti-CD3ε antibody (145-2C11) in carbonate buffer (PH 9.6) overnight at 4° C. […] Murine IFNγ was measured using an ELISA kit from Endogen (Cambridge, Mass.), according to the manufacturer's instructions.
The calculated colon-to-body weight ratio was consistent with the histological score, showing attenuation by treatment with the test compound.

In experiment [2] the test system is adjuvant arthritis (AA) in female Lewis rats. The experiment is described as follows: Treatment of adjuvant arthritis in rats. The format is in vivo, rat. Particulars: oral administration once a day for 12 days; experiments repeated four times. The protocol: Treatment of adjuvant arthritis in rats: Adjuvant arthritis (AA) was induced in female Lewis rats by the intracutaneous injection (base of the tail) of 0.1 mL of a 10 mg/mL bacterial suspension made from ground, heat-killed Mycobacterium tuberculosis H37Ra suspended in incomplete Freund's adjuvant. Rats were given a test compound orally once a day for 12 days, starting the day following the induction. The development of polyarthritis was monitored daily by macroscopic inspection and assignment of an arthritis index to each animal, during the critical period (days 10 to 25 post-immunization).
The intensity of polyarthritis was scored according to the following scheme: (a) Grade each paw from 0 to 3 based on erythema, swelling, and deformity of the joints: 0 for no erythema or swelling; 0.5 if swelling is detectable in at least one joint; 1 for mild swelling and erythema; 2 for swelling and erythema of both tarsus and carpus; and 3 for ankylosis and bony deformity. Maximum score for all 4 paws was thus 12. […]
Experiments with the AA model were repeated four times. […] The arthritis score used in this model was a reflection of the inflammatory state of the structures monitored and the results therefore show the ability of the test compound to provide relief for this aspect of the pathology.

The test system of experiment [3] is IL-23. The experiment is described as follows: Inhibition of IL-23 in stimulated human PBMC (p19 capture ELISA). Type of experiment: cell-based. The source says: The level of inhibition of IL-23 inhibition by a compound of the invention can be measured by a similar assay in which human peripheral blood mononuclear cells (PBMC) or human monocytic cell line (THP-1) are stimulated with a combination of human interferon-γ (IFNγ) and lipopolysaccharide (LPS) or a combination of IFNγ and Staphylococcus aureus Cowan I (SAC) in the presence of a test compound. The level of inhibition of IL-23 production can be measured by determining the amount of p19 by using a sandwich ELISA assay with antibodies the recognize p19 subunit of IL-23. IC50 of the test compound can then be determined. One such assay is disclosed herein in Example 30.
Therefore, inhibition of IL-23 in addition to IL-12 is expected. In order to confirm the hypothesis, an assay was established to specifically detect IL-23 using polyclonal antibodies recognizing p19 (R&D Systems, MN), an IL-23 specific subunit. A 96-well plate was coated with the antibodies at 1 μg/ml, and after washing incubated with the supernatants of human peripheral blood mononuclear cells (PBMC). The culture was stimulated with 1 μg/ml of liposaccharide (LPS) (FIG. 2) or 0.025% of S. aureus Cowan I (SAC) (FIG. 1) in the presence of test compound after IFN-γ priming. The captured IL-23 was then detected by a biotinylated goat anti-human p40 antibody that binds to p40 subunit of human IL-12 and IL-23 as a monomer or in the context of the respective heterodimer (Part 840099 of product DY1240 from R&D Systems). The plate was developed by incubation with streptavidin-HRP and then substrate solution (R&D Systems Cat # DY999). Recombinant IL-23 (R&D Systems) was added as standard in the assay. The estimated detection range is from 0.1 to 10 ng/ml, and 1 ng/ml recombinant IL-12 heterodimer (Cell Sciences, MA) and p40 monomer (R&D Systems) were under detection limit. To compare with the inhibition of IL-23, the supernatant was also analyzed for IL-12 heterodimer and total p40 proteins using IL-12 specific ELISA kit (Cell Sciences) and p40 ELISA kit (R&D Systems) respectively.
A general note: ELISA stands for enzyme-linked immunosorbent assay.

Experiment [4] deals with DNBS-induced distal colitis in Wistar derived rats. The experiment is described as follows: Dinitrobenzene sulfonic acid-induced inflammatory bowel syndrome model rats. The format is in vivo, rat. Particulars: oral, 24 and 2 hours before DNBS instillation and then daily for 5 days. The protocol:
Treatment of Crohn's disease in dinitrobenzene sulfonic acid-induced inflammatory bowel syndrome model rats: Wistar derived male or female rats weighing 200±20 g and fasted for 24 hours were used. Distal colitis was induced by intra-colonic instillation of 2,4-dinitrobenzene sulfonic acid (DNBS, 25 mg in 0.5 mL ethanol 30%) after which air (2 mL) was gently injected through the cannula to ensure that the solution remained in the colon. A test compound and/or vehicle was administered orally 24 and 2 hours before DNBS instillation and then daily for 5 days. One control group was similarly treated with vehicle alone while the other is treated with vehicle plus DNBS. The animals were sacrificed 24 hours after the final dose of test compound administration and each colon was removed and weighed. Colon-to-body weight ratio was then calculated for each animal according to the formula: Colon (g)/BW×100. The “Net” increase in ratio of Vehicle-control+DNBS group relative to Vehicle-control group was used as a base for comparison with test substance treated groups and expressed as “% Deduction.” Pyrimidine compounds of this invention (e.g., Compound 12) reproducibly had about 30% deduction. A 30% or more reduction in colon-to-body weight ratio, relative to the vehicle treated control group, was considered significant.
These experiments were repeated three times and the effects were reproducible.

Consider `Cc1cccc(C=NNc2cc(N3CCOCC3)nc(OCCc3ccccn3)n2)c1` [Compound 12, N-(3-methyl-benzylidene)-N′-[6-morpholin-4-yl-2-(2-pyridin-2-yl-ethoxy)-pyrimidin-4-yl]-hydrazine], for which the “IFNγ production by LP cells” value in experiment [1] (LP cells ex vivo in response to anti-CD3 antibody and anti-CD28 antibody, 48 h) is on record as “greatly diminished the production”. Moreover, the colon-to-body weight ratio entry in experiment [1] (oral administration) was “attenuation”. In addition, in experiment [1] (oral administration once a day, 5 days per week, compared to vehicle control), the “colonic inflammation (histological analysis)” value is recorded as “reduced colonic inflammation”. In experiment [1] (oral, dose of 10 mg/kg), the “suppressive effect on colonic inflammation at 10 mg/kg” value is recorded as “substantial reduction”. In experiment [2], the arthritic score entry is “reproducibly reduced the arthritic score” and the development of polyarthritis result is on record as “delayed the development of polyarthritis in a dose-dependent manner”. The “inhibition of IL-23” value in experiment [3] (IFN-γ/SAC and IFN-γ/LPS-stimulated human PBMC) is recorded as “inhibited by compound 12 in a dose-dependent manner”. For the same molecule, in experiment [3] (stimulated human PBMC), the “inhibitory activity against IL-23 compared with that against IL-12” value was “slightly lower than that against IL-12” and the “inhibitory activity against IL-23 compared with that against p40” value is listed as “comparable to that against p40”. Besides, in experiment [4], the “% Deduction (net increase in colon-to-body weight ratio)” value is listed as “about 30%”.
